Measured values reported in article PMC9841533, “Microtubule-Stabilizing 1,2,4-Triazolo[1,5-a]pyrimidines as Candidate Therapeutics for Neurodegenerative Disease: Matched Molecular Pair Analyses and Computational Studies Reveal New Structure–Activity Insights” (Journal of Medicinal Chemistry, 2022).

What was measured:
[1] = Brain-to-plasma ratio in mice; type: in vivo; details: mouse, ip, 1 h post-administration, i.p. 1.5 mg/kg, read-out: brain-to-plasma ratio (B/P)
[2] = Plasma pharmacokinetics in CD-1 mice; type: in vivo, mouse; details: i.v. 5 mg/kg
Method: Studies to determine the pharmacokinetic properties of compounds 53 and 60 were conducted at Touchstone Biosciences (Plymouth Meeting, PA). For the determination of plasma pharmacokinetics, three male CD-1 mice (2–3 months of age) were injected i.v. (tail vein) with test compound at a dose of 5 mg/kg in a solution of 10% DMSO, 40% polyethylene glycol, and 50% water, and another three male CD-1 mice received oral gavage dosing of 60 formulated as above at a dose of 20 mg/kg. Blood samples were collected from the saphenous or submandibular veins at multiple time points after dosing and collected in Greiner MiniCollect K2EDTA tubes. Compound levels in plasma were determined by LC-MS/MS, using protocols similar to those previously described.[16],[22]

[3] = tested on: de-tyrosinated α-tubulin (GluTub) in brain of WT mice; experiment: Brain PD: Glu-tubulin in brain tissue after compound treatment; type: in vivo, mouse; details: WT CD-1 mice, 1 mg/kg i.p. once daily for two consecutive days
Method: Finally, to evaluate target engagement in the CNS, PD studies were conducted to determine compound-dependent elevations in the stable MT marker, de-tyrosinated α-tubulin (GluTub), in brain homogenates from compound-treated WT mice.
All animal protocols were approved by the University of Pennsylvania Institutional Animal Care and Use Committee (IACUC). […] Compounds were diluted from 20 or 40 mM DMSO stock solutions into 30% Kolliphor EL (Sigma-Aldrich) phosphate-buffered saline, pH 7.4. After 4 h following the second injection, mice were euthanized and cortices and hippocampi were isolated from each brain and placed in 0.2 mL of ice-cold radioimmunoprecipitation assay (RIPA) buffer (50 mM Tris, 150 mM NaCl, 5 mM EDTA, 0.5% sodium deoxycholate, 1% NP-40, 0.1% sodium dodecyl sulfate (SDS), pH 8.0) containing protease inhibitor (PI) cocktail (Sigma-Aldrich), 1 mM phenylmethylsulfonyl fluoride (PMSF) (Sigma-Aldrich), and 3 μM trichostatin A (TSA) (Sigma-Aldrich). The brain samples were homogenized with a handheld battery-operated mixer and subsequently sonicated. After centrifugation at 100,000g for 30 min at 4 °C, supernatant samples were transferred to a new tube and the pellets were resuspended in 0.15 mL of RIPA buffer and again homogenized, sonicated, and centrifuged. The supernatant from the second centrifugation was pooled with that from the first. The combined supernatant samples were assessed for protein concentration using a BCA assay (Thermo Fisher Scientific), and equal protein amounts from each brain sample underwent separation by 10% sodium dodecyl sulfate polyacrylamide gel electrophoresis (SDS-PAGE) followed by transfer onto nitrocellulose membranes essentially as previously described.[11] […] Incubation with infrared dye-conjugated secondary antibodies and subsequent imaging and quantification of the blots on the Odyssey imaging system were as described.[11]

[4] = Resazurin cell viability assay, QBI293; type: cell-based; details: human, QBI293 cells, three biological replicates, read-out: QBI293 CC50 ± SD
Method: (§1) Cell Culture. QBI293 and HeLa cells were cultured in DMEM supplemented with 10% heat-
(§2) inactivated FBS and 1% penicillin-streptomycin. Cells were grown in T175 cell culture flasks maintained
(§3) at 37 ℃ in 5% CO2 and sub-c ultured when at 60-8 0% cell confluence.
(§4) Resazurin Cell Viability Assay. Cytotoxicity in QBI293 and HeLa cells was measured using the
(§5) resazurin cell viability assay.1 Test compounds were serially diluted in DMSO and added to 96-well
(§6) polystyrene assay plates to give final assay concentrations ranging from 100 nM to 4000 nM (1 µL; 1%
(§7) total DMSO). Fresh medium was added to the assay plate (49 µL/well). QBI293 or HeLa cells were
(§8) cells/well. Assay plates were incubated at 37 °C and 5% CO2 for 48 h, followed by addition of 20 µL 0.5
(§9) mM resazurin (Alfa Aesar, Cat. B21187) in PBS to each well. Assay plates were incubated in the dark for
(§10) (1 picture or pasted object on this page, not shown here)
(§11) 4 h at 37 °C. Fluorescence was measured at 531 nm and 595 nm excitation and emission wavelengths,
(§12) respectively, using a 2104 EnVision® multilabel plate reader. The viability of each well was normalized to
(§13) positive and negative controls in each assay plate. Dose-response curves were generated and CC50 values
(§14) calculated with GraphPad Prism, version 9.3 (San Diego, CA) using a sigmoidal four parameter logistic
(§15) curve. The means ± standard deviations from three biological replicates are shown.
(§16) (1) O'Brien, J.; Wilson, I.; Orton, T.; Pognan, F. Investigation of the Alamar Blue (resazurin) fluorescent
(§17) dye for the assessment of mammalian cell cytotoxicity. Eur. J. Biochem. 2000, 267 (17), 5421-5426.

[5] = Resazurin cell viability assay, HeLa; type: cell-based; details: human, HeLa cells, three biological replicates, read-out: HeLa CC50 ± SD
Method: as §1, §2, §3, §4, §5, §6, §7, §8, §9, §10, §11, §12, §13, §14, §15, §16, §17

C[C@@H](Nc1c(-c2c(F)cc(C#CCCO)cc2F)c(Cl)nc2ncnn12)C(C)(C)C [Compound 53, (R)-4-(4-(5-Chloro-7-((3,3-dimethylbutan-2-yl)amino)-[1,2,4]triazolo[1,5-a]pyrimidin-6-yl)-3,5-difluorophenyl)but-3-yn-1-ol]
Kp at 1 h [1]: ~0.5 | half-life (T1/2) [2]: relatively prolonged half-life | brain GluTub (GluTub-to-total α-Tub ratio) relative to vehicle-treated mice [3]: significant elevations in brain GluTub | CC50 at 48 h [4]: 30.1 ± 4.8 nM | CC50 at 48 h [5]: 30.8 ± 4.7 nM
